Measured values: patent US20230103514A1, “A TOPICAL COMPOSITION COMPRISING AN EXTRACT OF COMBINED HERBS COMPRISING LONGANAE ARILLUS FOR THE SKIN REGENERATION AND THE TREATMENT OR ALLEVIATION OF SKIN WOUND AND THE USE THEREOF” (MEDIHELPLINE CO., LTD, priority 2020, published 2023)

Assays:
TSLP = assay: Inhibitory effect on cytokine expression (RT-PCR, TNF alpha-induced HaCaT cells): TSLP; type: cell-based, human; details: TNFα 50 ng/ml, extract 1 μg/ml, Dex 200 nM, non-induced = 1
Procedure: (§1) In order to determine the anti-inflammatory activity of inventive extract, following inhibition test of cytokine expression using HaCaT cell was performed according to the procedure disclosed in the literature (Jeong et al., 2019, J. Invest. Dermatol., May; 139 (5): pp1098-1109). ?
(§2) HaCaT cell (human epithelial keratinocyte cell, 300493, CLS) was inoculated into DMEM medium containing 10% Fetal bovine serum, 100 units/ml of penicillin, 100 μg/ml of streptomycin (D6429, Sigma-Aldrich Co. Ltd) and was incubated in the incubator (HERA cell 150i, Thermo Fisher Scientific Co. Ltd.) maintaining optimum humidity (85-95%) and 5% CO2 atmosphere.
(§3) For performing gene expression test, the incubated cells were transferred to 12 wells and 50 ng/ml of TNF alpha (RC214-12, Biobasic Co. Ltd) was treated therewith for 1 hour to induce inflammatory response.
(§4) 1 hour after inducing the inflammation, 1 μg/ml of inventive extract prepared in Examples was treated with identical medium and subjected to incubation for 1 hour. After the incubation, RNA (FATRR-001, Favorgen) was extracted from the cell and cDNA was synthesized from the RNA using by cDNA synthesis kit (RRO36A, TAKARA). […]

IL-1β = assay: Inhibitory effect on cytokine expression (RT-PCR, TNF alpha-induced HaCaT cells): IL-1β; type: cell-based, human; details: TNFα 50 ng/ml, extract 1 μg/ml, Dex 200 nM, non-induced = 1
Procedure: as §1, §2, §3, §4

C[C@@H]1C[C@H]2[C@@H]3CCC4=CC(=O)C=C[C@]4(C)[C@@]3(F)[C@@H](O)C[C@]2(C)[C@@]1(O)C(=O)CO [Dex, Dexamethasone]
TSLP expression (quantitative RT-PCR) (TSLP): 52.49
IL-1β expression (quantitative RT-PCR) (IL-1β): 1.081
